Experimental findings from patent US8309554B2 (priority 2008, dated 2012) are described below.

Like-named read-outs stand apart in the source and are kept apart here.

The experiment deals with H460. Description: cells. The settings on record: for IC50: Homo sapiens. It counts as cell-based.
Setting [1] is: NCI-H460, read-out: 2 h Air H460 monolayer IC50.
Where [2] appears, read: NCI-H460, read-out: 2 h N2 H460 monolayer IC50.
Setting [3] is: NCI-H460, 2 h, read-out: 2 hr Air H460 IC50.
[4] abbreviates: NCI-H460, 2 h, read-out: 2 hr N2 H460 IC50.

Broadly, the IC50 is the concentration that gives 50% inhibition. Take `CN(c1ccc(N(CCCl)CCCl)cc1)S(=O)(=O)Cc1ccc([N+](=O)[O-])cc1` [TH-1123]: the IC50 was more than 300 µM under setting [1] and more than 300 µM under setting [2].
In the case of `CN(c1cc(F)c(N(CCCl)CCCl)c(F)c1)S(=O)(=O)Cc1cnc([N+](=O)[O-])n1C` [TH-1138], the IC50 under setting [1] stood at 34.2 µM and the IC50 under setting [2] stood at 13.5 µM.
The matching figures for `Cc1cc(OS(=O)(=O)Cc2ccoc2[N+](=O)[O-])ccc1N(CCCl)CCCl` [TH-1117]: 2.3 µM and 1.1 µM.
On to `O=[N+]([O-])c1sccc1C(Cc1ccc(O[C@@H]2CCC[C@H]2O)nc1)S(=O)(=O)Oc1ccc(N(CCCl)CCCl)cc1` (stereo partly drawn) [TH-1452], for which the “H460 HCR: Air/N2” value is 55. Further, the half-maximal inhibitory concentration (IC50) under setting [3] worked out at 110 µM. For the same compound, the IC50 under setting [4] came to 2 µM.
The matching figures for `O=[N+]([O-])c1sccc1C(Cc1ccc2c(ccn2CCO)c1)S(=O)(=O)Oc1ccc(N(CCCl)CCCl)cc1` (stereo not drawn) [TH-1140]: 114, 114 µM and 1 µM.
Turning to `Cn1c(CS(=O)(=O)Nc2cc(F)c(N(CCCl)CCCl)c(F)c2)cnc1[N+](=O)[O-]` [TH-1137], the half-inhibitory concentration (IC50) was found to be 20.4 µM under setting [1] and 8.3 µM under setting [2].
The matching figures for `Cn1c(CN(c2ccc(N(CCCl)CCCl)cc2)S(=O)(=O)C(F)(F)F)cnc1[N+](=O)[O-]` [TH-1128]: 267 µM and 294 µM.
As to `Cc1cc(OS(=O)(=O)Cc2ncn(C)c2[N+](=O)[O-])ccc1N(CCCl)CCCl` [TH-1111], the IC50 worked out at 4.7 µM under setting [1] and 2.5 µM under setting [2].
Turning to `O=[N+]([O-])c1nccn1CS(=O)(=O)Nc1cc(F)c(N(CCCl)CCCl)c(F)c1` [TH-1133], the IC50 is, setting by setting: under setting [1], 11.3 µM; under setting [2], 5.9 µM.
For `O=[N+]([O-])c1sccc1C(Cc1ccc(NS(=O)(=O)C(F)(F)F)nc1)S(=O)(=O)Oc1ccc(N(CCCl)CCCl)cc1` (stereo not drawn) [TH-1262], the “H460 HCR: Air/N2” value came out at 150. Besides, the 50% inhibitory concentration (IC50) under setting [3] was determined as 90 µM. In addition, the IC50 under setting [4] came to 0.6 µM.
With `Cc1cc(OS(=O)(=O)C(C)(C)n2ccnc2[N+](=O)[O-])ccc1N(CCCl)CCCl` [TH-1134], the IC50 under setting [1] stood at 0.2 µM and the IC50 under setting [2] was less than 0.1 µM.
In the case of `CN(CCO)c1ccc(CC(c2ccsc2[N+](=O)[O-])S(=O)(=O)Oc2ccc(N(CCCl)CCCl)cc2)cn1` (stereo not drawn) [TH-1434], the “H460 HCR: Air/N2” value is listed as 83. For the same compound, the IC50 under setting [3] was determined as 50 µM. Besides, the IC50 under setting [4] worked out at 0.6 µM.
For the compound `Cc1cc(OS(=O)(=O)Cc2nc(C)n(C)c2[N+](=O)[O-])ccc1N(CCCl)CCCl` [TH-1112], the IC50 runs as follows: under setting [1], 1.4 µM; under setting [2], 1.7 µM.
For `O=[N+]([O-])c1sccc1C(Cc1ccc(Cl)nc1)S(=O)(=O)Oc1ccc(N(CCCl)CCCl)cc1` (stereo not drawn) [TH-1341], the “H460 HCR: Air/N2” value is given as 43. The IC50 under setting [3] came to 145 µM. The IC50 under setting [4] was 3.4 µM.
Regarding `Cc1cc(CS(=O)(=O)N(C)c2ccc(N(CCCl)CCCl)cc2)c([N+](=O)[O-])s1` [TH-1125], the IC50 reads like this: under setting [1], 148 µM; under setting [2], 69 µM.
For the compound `CN(c1ccc(N(CCCl)CCCl)cc1)S(=O)(=O)C(C)(C)c1ccc([N+](=O)[O-])cc1` [TH-1124], the IC50 by setting is: under setting [1], 289 µM; under setting [2], 243 µM.
As to `CCc1nc([N+](=O)[O-])n(C)c1CS(=O)(=O)N(C)c1ccc(N(CCCl)CCCl)cc1` [TH-1145], the IC50 under setting [1] worked out at 78.2 µM and the concentration for half-maximal inhibition (IC50) under setting [2] was 3.8 µM.
The matching figures for `Cc1cc(C(C)(C)S(=O)(=O)Oc2ccc(N(CCCl)CCCl)c(C)c2)c([N+](=O)[O-])s1` [TH-1132]: 2 µM and 0.3 µM.
The matching figures for `CN(c1ccc(N(CCCl)CCCl)cc1)S(=O)(=O)Cc1ccsc1[N+](=O)[O-]` [TH-1118]: 12.9 µM and 6.7 µM.
`Cc1cc(CS(=O)(=O)Oc2ccc(N(CCCl)CCCl)c(C)c2)c([N+](=O)[O-])s1` [TH-1131]: the IC50 runs as follows: under setting [1], 1 µM; under setting [2], 0.3 µM.
The matching figures for `Cc1cc(OS(=O)(=O)C(C)(C)c2ccc([N+](=O)[O-])cc2)ccc1N(CCCl)CCCl` [TH-1115]: 13 µM and 3 µM.
Consider `O=[N+]([O-])c1sccc1C(Cc1ccc2nn(CCO)nc2c1)S(=O)(=O)Oc1ccc(N(CCCl)CCCl)cc1` (stereo not drawn) [TH-1458], for which the “H460 HCR: Air/N2” value was found to be 60. In addition, the IC50 under setting [3] stood at 30 µM. For the same compound, the half-maximal inhibitory concentration (IC50) under setting [4] was 0.5 µM.
Take `CN(c1ccc(N(CCCl)CCCl)cc1)S(=O)(=O)Cc1cnc([N+](=O)[O-])n1C` [TH-1108]: the half-inhibitory concentration (IC50) by setting is: under setting [1], 15 µM; under setting [2], 11 µM.
Turning to `Cc1cc(OS(=O)(=O)C(C)(C)c2ccsc2[N+](=O)[O-])ccc1N(CCCl)CCCl` [TH-1121], the IC50 runs as follows: under setting [1], 1.3 µM; under setting [2], 0.3 µM.
The matching figures for `CN(c1ccc(N(CCCl)CCCl)cc1)S(=O)(=O)C(C)(C)c1nc(-c2ccccc2)c([N+](=O)[O-])n1C` [TH-1130]: 122 µM and 65 µM.
The matching figures for `O=[N+]([O-])c1nccn1CS(=O)(=O)Nc1ccc(N(CCCl)CCCl)cc1` [TH-1105]: 7.6 µM and 4.2 µM.
With `Cc1cc(OS(=O)(=O)Cc2ncc([N+](=O)[O-])n2C)ccc1N(CCCl)CCCl` [TH-1110], the IC50 runs as follows: under setting [1], 1.4 µM; under setting [2], 2.1 µM.
In the case of `Cn1c(CN(c2ccc(N(CCCl)CCCl)cc2)S(=O)(=O)CCl)cnc1[N+](=O)[O-]` [TH-1119], the half-inhibitory concentration (IC50) under setting [1] is more than 300 µM and the 50% inhibitory concentration (IC50) under setting [2] was more than 300 µM.
Turning to `CN(c1ccc(N(CCCl)CCCl)cc1)S(=O)(=O)Cc1nc(-c2ccccc2)c([N+](=O)[O-])n1C` [TH-1129], the half-inhibitory concentration (IC50) under setting [1] was 6.9 µM and the IC50 under setting [2] is 3.6 µM.
The matching figures for `Cc1cc(OS(=O)(=O)C(C)(C)c2ccc([N+](=O)[O-])cc2)ccc1N(CCBr)CCBr` [TH-1116]: 1.1 µM and 0.6 µM.
As for `C[C@H](O)[C@H](C)Oc1ccc(CC(c2ccsc2[N+](=O)[O-])S(=O)(=O)Oc2ccc(N(CCCl)CCCl)cc2)cn1` (stereo partly drawn) [TH-1486], the “H460 HCR: Air/N2” value is recorded as 36. Further, under setting [3], the IC50 is 36 µM. The IC50 under setting [4] was determined as 1 µM.
The matching figures for `O=[N+]([O-])c1sccc1C(Cc1ccc(N2CCC[C@H]2CO)nc1)S(=O)(=O)Oc1ccc(N(CCCl)CCCl)cc1` (stereo partly drawn) [TH-1430]: 500, 300 µM and 0.6 µM.
Consider `CC(C)(C)OC(=O)NCC(=O)Nc1ccc(CC(c2ccsc2[N+](=O)[O-])S(=O)(=O)Oc2ccc(N(CCCl)CCCl)cc2)cn1` (stereo not drawn) [TH-1351], for which the “H460 HCR: Air/N2” value is 49. Moreover, the concentration for half-maximal inhibition (IC50) under setting [3] was approximately 300 µM. Further, the IC50 under setting [4] stood at 6.1 µM.
Turning to `CC(c1ccc([N+](=O)[O-])cc1)S(=O)(=O)N(C)c1ccc(N(CCCl)CCCl)cc1` (stereo not drawn) [TH-1122], the half-inhibitory concentration (IC50) runs as follows: under setting [1], more than 300 µM; under setting [2], more than 300 µM.
Regarding `CS(=O)(=O)Nc1ccc(CC(c2ccsc2[N+](=O)[O-])S(=O)(=O)Oc2ccc(N(CCCl)CCCl)cc2)cn1` (stereo not drawn) [TH-1272], the “H460 HCR: Air/N2” value worked out at 91. For the same compound, the IC50 under setting [3] stood at 290 µM. The concentration for half-maximal inhibition (IC50) under setting [4] was found to be 3.2 µM.
Regarding `Cc1cc(OS(=O)(=O)Cc2ccsc2[N+](=O)[O-])ccc1N(CCCl)CCCl` [TH-1103], the half-inhibitory concentration (IC50) under setting [1] is 0.7 µM and the half-inhibitory concentration (IC50) under setting [2] turned out to be 0.1 µM.
Take `Cn1c(CS(=O)(=O)Nc2ccc(N(CCCl)CCCl)cc2)cnc1[N+](=O)[O-]` [TH-1104]: the half-maximal inhibitory concentration (IC50) is 7.4 µM under setting [1] and 6.1 µM under setting [2].
